Test results taken from patent publication US9403823B2, “Protein kinase inhibitors” (ORIBASE PHARMA, priority 2012, dated 2016).
Like-named read-outs stand apart in the source and are kept apart here.

Assays:
HUVEC = assay: In vitro cell proliferation assay (MTT), HUVEC; assay type: cell-based; settings: Homo sapiens, 72 h, read-out: EC50, anti-proliferative activity
Summary of the method: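 HUVEC cells were plated at 1×10^4 cells per well in 96-well plates and exposed in duplicate to increasing compound concentrations from 10 nM to 3 μM for 72 hr. Proliferation was then quantified with MTT (3[4,5-dimethylthiazol-2-yl]-2,5-diphenyltetrazolium bromide) to determine anti-proliferative activity.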

HuH6 Clone 5 cell line = assay: In vitro cell proliferation assay (MTT), HuH6 Clone 5; assay type: cell-based; settings: HUH-6-clone5, 72 h; read-out: EC50, anti-proliferative activity
Procedure: (§1) 2) In Vitro Cell Proliferation Assays (Table 22 to Table 35)
(§2) Cancer cell lines (5×10^3 cells per well) or HUVEC (1×10^4 cells per well) or HRMEC (1×10^4 cells per well) were distributed in 96-well plates and incubating in duplicate with escalating concentrations (10 nM to 3 μM) of compounds for 72 hr. Cell proliferation was measured using MTT (3[4,5-dimethylthiazol-2-yl]-2,5-diphenyltetrazolium bromide).

FGFR2 = molecular target: T1, FGFR2 (Homo sapiens, UniProt P21802); assay: In vitro kinase assay (Z'-LYTE), FGFR2; assay type: biochemical; settings: read-out: % of inhibition of the kinase compared to the control
T1 construct: purchased Invitrogen
Summary of the method: (§3)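 Peptide/kinase mix and ATP (at apparent Km) were combined in kinase buffer with compound at 100 nM, or 10 μM against ABL and its T315I mutant. Non-phosphorylated peptide was then proteolytically cleaved, and donor-to-acceptor emission ratio gave the extent of phosphorylation.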

HuH7 cell line = assay: In vitro cell proliferation assay (MTT), HuH7; assay type: cell-based; settings: Homo sapiens, Huh-7, 72 h; read-out: EC50, anti-proliferative activity
Procedure: as §1, §2

HeLa cell line = assay: In vitro cell proliferation assay (MTT), HeLa; assay type: cell-based; settings: Homo sapiens, 72 hr, MTT, read-out: EC50, anti-proliferative activity
Procedure: as §1, §2

EGFR (ErbB1) T790M L858R = molecular target: T2, EGFR (ErbB1) T790M L858R (Homo sapiens, UniProt P00533, L858R/T790M); assay: In vitro kinase assay (Z'-LYTE), EGFR (ErbB1) T790M L858R; assay type: biochemical; settings: read-out: % of inhibition of the kinase compared to the control
T2 construct: purchased Invitrogen
T2 sequence (P00533 25-1210 T790M/L858R): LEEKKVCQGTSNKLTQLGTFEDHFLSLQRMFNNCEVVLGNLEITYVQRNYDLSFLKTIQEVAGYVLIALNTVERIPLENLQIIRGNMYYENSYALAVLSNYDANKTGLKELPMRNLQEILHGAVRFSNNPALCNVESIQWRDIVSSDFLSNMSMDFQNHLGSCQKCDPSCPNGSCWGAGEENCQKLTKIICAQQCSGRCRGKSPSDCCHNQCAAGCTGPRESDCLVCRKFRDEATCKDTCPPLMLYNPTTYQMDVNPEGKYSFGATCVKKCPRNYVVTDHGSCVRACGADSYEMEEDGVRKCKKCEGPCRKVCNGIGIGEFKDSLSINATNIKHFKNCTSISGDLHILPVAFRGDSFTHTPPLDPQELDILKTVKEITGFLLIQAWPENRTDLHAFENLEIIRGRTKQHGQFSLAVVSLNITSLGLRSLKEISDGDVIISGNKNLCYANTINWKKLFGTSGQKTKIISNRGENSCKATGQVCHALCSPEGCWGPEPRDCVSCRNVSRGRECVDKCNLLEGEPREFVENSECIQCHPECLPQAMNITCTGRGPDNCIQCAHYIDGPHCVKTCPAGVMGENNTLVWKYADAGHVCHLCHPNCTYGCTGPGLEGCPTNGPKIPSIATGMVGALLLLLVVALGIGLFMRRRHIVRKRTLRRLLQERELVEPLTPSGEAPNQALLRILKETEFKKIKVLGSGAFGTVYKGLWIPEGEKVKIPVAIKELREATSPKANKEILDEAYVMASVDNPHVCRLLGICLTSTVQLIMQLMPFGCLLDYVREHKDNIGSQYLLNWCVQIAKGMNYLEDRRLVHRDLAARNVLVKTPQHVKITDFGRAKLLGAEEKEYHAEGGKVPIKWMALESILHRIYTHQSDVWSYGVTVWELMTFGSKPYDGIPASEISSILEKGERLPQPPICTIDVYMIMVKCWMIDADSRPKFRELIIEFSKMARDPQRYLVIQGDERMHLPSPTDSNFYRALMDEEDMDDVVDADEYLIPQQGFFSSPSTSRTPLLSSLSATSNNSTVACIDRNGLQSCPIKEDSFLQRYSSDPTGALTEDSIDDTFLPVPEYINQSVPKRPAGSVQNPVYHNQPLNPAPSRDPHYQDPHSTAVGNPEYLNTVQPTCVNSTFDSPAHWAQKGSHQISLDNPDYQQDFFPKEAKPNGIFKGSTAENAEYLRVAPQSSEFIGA
Procedure: (§4) 1) In Vitro Kinase Assays (Table 10 to Table 21)
(§5) The inhibitory activity of the compounds on several kinases including BRAF, EGFR (ErbB1), EGFR (ErbB1) T790M L858R, FGFR2, KDR (VEGFR2), PDGFRA (PDGFR alpha), SRC and other was evaluated by Invitrogen using the Z′-LYTE® technology. Briefly, the Z′-LYTE® biochemical assay employs a fluorescence-based, coupled-enzyme format and is based on the differential sensitivity of phosphorylated and non-phosphorylated peptides to proteolytic cleavage. The peptide substrate is labeled with two fluorophores—one at each end—that make up a FRET pair. A ratiometric method, which calculates the ratio (the Emission Ratio) of donor emission to acceptor emission after excitation of the donor fluorophore at 400 nm, is used to quantitate reaction progress.
(§6) The compounds are screened in 1% DMSO (final) in the well. For 10 point titrations, 3-fold serial dilutions are conducted from the starting concentration. All Peptide/Kinase Mixtures are diluted to a 2× working concentration in the appropriate Kinase Buffer. All ATP Solutions are diluted to a 4× working concentration in Kinase Buffer (50 mM HEPES pH 7.5, 0.01% BRIJ-35, 10 mM MgCl2, 1 mM EGTA). ATP Km apparent is previously determined using a Z′-LYTE® assay.
(§7) Each compound was incubated at a concentration of 100 nM (excepted to test the activity against ABL and ABL T315I for which the compounds were incubated at a concentration of 10 μM) and the tables 10 to 21 summarize the results obtained showing the inhibitory power of a compound.

H1975 cell line = assay: In vitro cell proliferation assay (MTT), H1975; assay type: cell-based; settings: Homo sapiens, read-out: EC50, anti-proliferative activity
Procedure: as §1, §2

A549 cell line = assay: In vitro cell proliferation assay (MTT), A549; assay type: cell-based; settings: Homo sapiens, read-out: EC50, anti-proliferative activity
Procedure: as §1, §2

MDA-MB-231 cell line = assay: In vitro cell proliferation assay (MTT), MDA-MB-231; assay type: cell-based; settings: Homo sapiens, MDA-MB-231, 72 h; read-out: EC50, anti-proliferative activity
Procedure: as §1, §2

HT29 cell line = assay: In vitro cell proliferation assay (MTT), HT29; assay type: cell-based; settings: Homo sapiens, read-out: EC50, anti-proliferative activity
Procedure: as §1, §2

HRMEC cells = assay: In vitro cell proliferation assay (MTT), HRMEC; assay type: cell-based; settings: 72 h, read-out: EC50, anti-proliferative activity
Procedure: as §1, §2

KDR (VEGFR2) = molecular target: T3, KDR (VEGFR2) (Homo sapiens, UniProt P35968); assay: In vitro kinase assay (Z'-LYTE), KDR (VEGFR2); assay type: biochemical; settings: read-out: % of inhibition of the kinase compared to the control
T3 construct: purchased Invitrogen
T3 sequence (P35968 20-1356): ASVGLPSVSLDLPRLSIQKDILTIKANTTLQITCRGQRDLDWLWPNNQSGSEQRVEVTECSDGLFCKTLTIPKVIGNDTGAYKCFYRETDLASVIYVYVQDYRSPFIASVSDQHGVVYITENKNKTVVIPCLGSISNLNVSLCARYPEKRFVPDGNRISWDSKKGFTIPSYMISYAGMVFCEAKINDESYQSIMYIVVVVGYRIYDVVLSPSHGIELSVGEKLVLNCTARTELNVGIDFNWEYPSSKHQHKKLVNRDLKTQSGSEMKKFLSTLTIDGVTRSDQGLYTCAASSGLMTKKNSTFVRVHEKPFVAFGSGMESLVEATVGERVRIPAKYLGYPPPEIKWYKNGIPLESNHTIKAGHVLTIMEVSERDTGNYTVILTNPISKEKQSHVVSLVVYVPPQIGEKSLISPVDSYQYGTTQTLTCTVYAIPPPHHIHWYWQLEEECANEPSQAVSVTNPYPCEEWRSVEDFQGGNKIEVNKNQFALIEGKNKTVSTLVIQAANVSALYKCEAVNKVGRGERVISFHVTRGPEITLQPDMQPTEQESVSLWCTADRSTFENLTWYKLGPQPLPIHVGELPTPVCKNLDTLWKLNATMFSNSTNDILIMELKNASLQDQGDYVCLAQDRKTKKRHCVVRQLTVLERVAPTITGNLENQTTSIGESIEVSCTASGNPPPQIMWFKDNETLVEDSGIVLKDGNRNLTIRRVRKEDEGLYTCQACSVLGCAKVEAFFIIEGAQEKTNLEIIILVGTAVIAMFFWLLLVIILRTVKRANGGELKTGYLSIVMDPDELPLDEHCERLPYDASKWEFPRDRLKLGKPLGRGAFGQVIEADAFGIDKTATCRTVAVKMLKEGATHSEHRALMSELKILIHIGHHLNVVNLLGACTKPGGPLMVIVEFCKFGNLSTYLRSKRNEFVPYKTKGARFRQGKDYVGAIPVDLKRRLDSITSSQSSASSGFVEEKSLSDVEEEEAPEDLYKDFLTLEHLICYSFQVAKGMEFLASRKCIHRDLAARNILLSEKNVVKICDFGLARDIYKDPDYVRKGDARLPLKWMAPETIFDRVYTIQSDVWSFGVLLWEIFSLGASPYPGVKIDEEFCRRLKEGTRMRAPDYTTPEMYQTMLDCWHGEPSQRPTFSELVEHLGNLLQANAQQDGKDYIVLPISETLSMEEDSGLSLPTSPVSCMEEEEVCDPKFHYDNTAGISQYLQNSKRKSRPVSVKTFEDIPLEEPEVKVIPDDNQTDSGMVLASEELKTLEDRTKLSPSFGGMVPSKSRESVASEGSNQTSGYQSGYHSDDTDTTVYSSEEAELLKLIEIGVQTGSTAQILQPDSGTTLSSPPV
Summary of the method: as §3

BRAF = molecular target: T4, BRAF (Homo sapiens, UniProt P15056); assay: In vitro kinase assay (Z'-LYTE), BRAF; assay type: biochemical; settings: read-out: % of inhibition of the kinase compared to the control
T4 construct: purchased Invitrogen
T4 sequence (P15056 whole entry): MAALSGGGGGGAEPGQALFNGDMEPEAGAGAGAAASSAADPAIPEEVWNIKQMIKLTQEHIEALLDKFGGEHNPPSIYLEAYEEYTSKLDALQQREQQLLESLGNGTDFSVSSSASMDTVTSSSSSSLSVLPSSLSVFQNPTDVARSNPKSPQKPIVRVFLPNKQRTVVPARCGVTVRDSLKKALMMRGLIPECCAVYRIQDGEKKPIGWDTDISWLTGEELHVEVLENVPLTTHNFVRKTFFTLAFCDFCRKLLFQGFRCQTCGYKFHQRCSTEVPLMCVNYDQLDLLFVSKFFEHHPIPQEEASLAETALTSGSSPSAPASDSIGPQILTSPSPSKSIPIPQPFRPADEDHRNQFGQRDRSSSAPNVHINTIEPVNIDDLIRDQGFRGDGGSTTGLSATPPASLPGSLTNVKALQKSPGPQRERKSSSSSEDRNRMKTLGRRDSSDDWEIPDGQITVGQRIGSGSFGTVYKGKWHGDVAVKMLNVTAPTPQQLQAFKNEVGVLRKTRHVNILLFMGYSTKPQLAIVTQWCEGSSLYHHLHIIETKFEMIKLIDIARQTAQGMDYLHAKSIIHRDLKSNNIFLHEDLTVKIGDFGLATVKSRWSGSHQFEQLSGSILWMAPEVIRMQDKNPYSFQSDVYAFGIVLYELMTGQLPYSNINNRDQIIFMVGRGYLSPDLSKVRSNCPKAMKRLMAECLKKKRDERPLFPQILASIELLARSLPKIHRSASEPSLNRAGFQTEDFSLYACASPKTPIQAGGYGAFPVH
Summary of the method: as §3

SRC = molecular target: T5, SRC (Homo sapiens, UniProt P12931); assay: In vitro kinase assay (Z'-LYTE), SRC; assay type: biochemical; settings: read-out: % of inhibition of the kinase compared to the control
T5 construct: purchased Invitrogen
T5 sequence (P12931 whole entry): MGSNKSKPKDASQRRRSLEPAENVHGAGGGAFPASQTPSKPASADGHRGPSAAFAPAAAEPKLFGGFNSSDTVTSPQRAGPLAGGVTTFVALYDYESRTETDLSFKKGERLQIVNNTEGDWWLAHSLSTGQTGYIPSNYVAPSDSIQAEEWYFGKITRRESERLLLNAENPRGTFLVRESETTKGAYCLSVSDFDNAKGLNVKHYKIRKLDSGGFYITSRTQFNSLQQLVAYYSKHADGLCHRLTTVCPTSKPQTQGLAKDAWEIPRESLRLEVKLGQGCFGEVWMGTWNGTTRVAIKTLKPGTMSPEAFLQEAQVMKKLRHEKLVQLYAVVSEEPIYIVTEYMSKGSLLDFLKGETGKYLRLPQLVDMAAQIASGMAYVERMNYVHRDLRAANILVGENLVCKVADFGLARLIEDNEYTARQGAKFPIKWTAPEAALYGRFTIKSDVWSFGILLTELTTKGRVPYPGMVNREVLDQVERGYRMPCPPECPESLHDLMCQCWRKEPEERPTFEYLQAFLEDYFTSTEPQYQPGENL
Summary of the method: as §3

HuCCT1 cell line = assay: In vitro cell proliferation assay (MTT), HuCCT1; assay type: cell-based; settings: Homo sapiens, HuCCT-1, 72 h; read-out: EC50, anti-proliferative activity
Procedure: as §1, §2

EGFR (ErbB1) = molecular target: T6, EGFR (ErbB1) (Homo sapiens, UniProt P00533); assay: In vitro kinase assay (Z'-LYTE), EGFR (ErbB1); assay type: biochemical; settings: read-out: % of inhibition of the kinase compared to the control
T6 construct: purchased Invitrogen
Summary of the method: as §3

HepG2 cell line = assay: In vitro cell proliferation assay (MTT), HepG2; assay type: cell-based; settings: Homo sapiens, read-out: EC50, anti-proliferative activity
Summary of the method: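 Seed cells (HRMEC 1×10^4/well; cancer lines 5×10^3/well), add compounds at escalating concentrations from 10 nM to 3 μM in duplicate, incubate 72 hr, then measure proliferation with MTT.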

PDGFRA (PDGFR alpha) = molecular target: T7, PDGFRA (PDGFR alpha) (Homo sapiens, UniProt P16234); assay: In vitro kinase assay (Z'-LYTE), PDGFRA; assay type: biochemical; settings: read-out: % of inhibition of the kinase compared to the control
T7 construct: purchased Invitrogen
T7 sequence (P16234 24-1089): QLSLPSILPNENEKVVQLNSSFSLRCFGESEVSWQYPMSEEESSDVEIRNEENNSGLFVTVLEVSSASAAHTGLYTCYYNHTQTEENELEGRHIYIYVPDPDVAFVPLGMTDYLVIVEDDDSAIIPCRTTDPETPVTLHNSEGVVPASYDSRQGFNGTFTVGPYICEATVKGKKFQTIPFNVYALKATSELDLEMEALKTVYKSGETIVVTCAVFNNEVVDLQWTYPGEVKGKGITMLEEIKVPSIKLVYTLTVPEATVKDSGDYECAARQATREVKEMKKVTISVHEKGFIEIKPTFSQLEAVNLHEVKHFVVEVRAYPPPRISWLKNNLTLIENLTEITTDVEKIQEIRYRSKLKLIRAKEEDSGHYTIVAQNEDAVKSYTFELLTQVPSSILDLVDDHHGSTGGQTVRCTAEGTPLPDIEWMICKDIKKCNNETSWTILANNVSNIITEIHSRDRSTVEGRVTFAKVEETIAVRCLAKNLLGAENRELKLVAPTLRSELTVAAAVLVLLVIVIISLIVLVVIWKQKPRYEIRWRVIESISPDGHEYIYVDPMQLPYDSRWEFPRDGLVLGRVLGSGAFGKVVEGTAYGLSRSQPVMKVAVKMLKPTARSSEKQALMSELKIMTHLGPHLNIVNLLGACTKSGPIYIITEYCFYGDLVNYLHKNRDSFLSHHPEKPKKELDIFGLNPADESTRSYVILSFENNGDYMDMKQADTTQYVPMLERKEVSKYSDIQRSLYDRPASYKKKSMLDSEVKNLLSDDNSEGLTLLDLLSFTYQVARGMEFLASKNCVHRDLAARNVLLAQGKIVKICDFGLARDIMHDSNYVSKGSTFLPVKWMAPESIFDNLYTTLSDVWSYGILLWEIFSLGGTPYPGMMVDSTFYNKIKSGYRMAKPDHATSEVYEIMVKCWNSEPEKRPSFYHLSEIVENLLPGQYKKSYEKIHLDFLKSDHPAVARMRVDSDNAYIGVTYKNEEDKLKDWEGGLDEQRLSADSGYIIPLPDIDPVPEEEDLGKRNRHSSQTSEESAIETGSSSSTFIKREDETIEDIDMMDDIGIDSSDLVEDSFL
Summary of the method: as §3

ABL = molecular target: T8, ABL (Homo sapiens, UniProt P00519); assay: In vitro kinase assay (Z'-LYTE), ABL; assay type: biochemical; settings: read-out: % of inhibition of the kinase compared to the control
T8 construct: purchased Invitrogen
Procedure: as §4, §5, §6, §7

ABL T315I = molecular target: T9, ABL T315I (Homo sapiens, UniProt P00519, T315I); assay: In vitro kinase assay (Z'-LYTE), ABL T315I; assay type: biochemical; settings: read-out: % of inhibition of the kinase compared to the control
T9 construct: purchased Invitrogen
Procedure: as §4, §5, §6, §7

BxPC-3 cell line = assay: In vitro cell proliferation assay (MTT), BxPC-3; assay type: cell-based; settings: Homo sapiens; BxPC-3, 72 hr, MTT; read-out: EC50, anti-proliferative activity
Procedure: as §1, §2

Row | EC50 (HuH6 Clone 5 cell line) | inhibition at 0.1 µM (FGFR2) | EC50 (HuH7 cell line) | inhibition at 0.1 µM (EGFR (ErbB1) T790M L858R) | EC50 (H1975 cell line; NCI-H1975, 72 h) | EC50 (A549 cell line; A549, 72 h) | EC50 (HT29 cell line; HT-29, 72 h) | inhibition at 0.1 µM (KDR (VEGFR2)) | inhibition at 0.1 µM (BRAF) | inhibition at 0.1 µM (SRC) | inhibition at 0.1 µM (EGFR (ErbB1)) | EC50 (HepG2 cell line; HepG2, 72 h) | inhibition at 0.1 µM (PDGFRA (PDGFR alpha)) | Compound | EC50 (HUVEC) | EC50 (HRMEC cells) | EC50 (HuCCT1 cell line) | further results
1 | 100 to 1000 nM | ≥ 50% | ≤ 100 nM | ≥ 50% | 100 to 1000 nM | 100 to 1000 nM | ≤ 100 nM | ≥ 50% | ≥ 50% | ≥ 50% | ≥ 50% | ≤ 100 nM | ≥ 50% | CNC(=O)c1cc2cc(NCc3cc(NC(=O)c4ccc(CN5CCN(C)CC5)c(C(F)(F)F)c4)ccc3C)cnc2[nH]1 [OR0751, 5-{2-Methyl-5-[4-(4-methyl-piperazin-1-ylmethyl)-3-trifluoromethyl-benzoylamino]-benzylamino}-1H-pyrrolo[2,3-b]pyridine-2-carboxylic acid methylamide] | ≤ 100 nM | ≤ 100 nM | 100 to 1000 nM | EC50 (HeLa cell line): ≥ 1000 nM; EC50 (MDA-MB-231 cell line): ≤ 100 nM
2 | – | ≥ 50% | – | ≥ 50% | – | – | – | ≥ 50% | < 50% | ≥ 50% | ≥ 50% | – | ≥ 50% | Cc1ccc(NC(=O)c2ccc(CN3CCC(N(C)C)C3)c(C(F)(F)F)c2)cc1CNc1cnc2[nH]c(C(=O)O)cc2c1 (stereo not drawn) [OR0528, 5-{5-[4-(3-Dimethylamino-pyrrolidin-1-ylmethyl)-3-trifluoromethyl-benzoylamino]-2-methyl-benzylamino}-1H-pyrrolo[2,3-b]pyridine-2-carboxylic acid] | – | – | – | EC50 (H1975 cell line; NCI-H1975, H1975, 72 hr, MTT): ≥ 1000 nM; EC50 (A549 cell line; A549, 72 hr, MTT): ≥ 1000 nM; inhibition at 10 µM (ABL): ≥ 50%; inhibition at 10 µM (ABL T315I): ≥ 50%; EC50 (HT29 cell line; HT-29, HT29, 72 hr, MTT): ≥ 1000 nM; EC50 (BxPC-3 cell line): ≥ 1000 nM; EC50 (HepG2 cell line; HepG2, 72 hr, MTT): ≥ 1000 nM
3 | 100 to 1000 nM | ≥ 50% | 100 to 1000 nM | ≥ 50% | 100 to 1000 nM | 100 to 1000 nM | 100 to 1000 nM | ≥ 50% | ≥ 50% | ≥ 50% | ≥ 50% | 100 to 1000 nM | ≥ 50% | CNC(=O)c1cc2cc(NCc3cc(NC(=O)c4ccc(CN5CCC(N(C)C)C5)c(C(F)(F)F)c4)ccc3C)cnc2[nH]1 (stereo not drawn) [OR0752, 5-{5-[4-(3-Dimethylamino-pyrrolidin-1-ylmethyl)-3-trifluoromethyl-benzoylamino]-2-methyl-benzylamino}-1H-pyrrolo[2,3-b]pyridine-2-carboxylic acid methylamide] | ≤ 100 nM | ≤ 100 nM | 100 to 1000 nM | –
